Measured values from paper PMC2646182 (Journal of the American Chemical Society, 2009).
Entries after “also recorded” stand apart in the source; their conditions may differ. Read-outs that look alike come from different tables or passages of the source.

Columns and labels:
L1210 [1] = assay: In vitro cytotoxic activity, L1210; type: cell-based; conditions: for IC50: L1210 in vitro cytotoxic activity
L1210 [2] = conditions: read-out: L1210 IC50; L1210, introduction; cited from earlier work
w794 DNA = assay: DNA alkylation, thermally-induced strand cleavage of w794 DNA; type: biochemical; conditions: 23 °C
[3] = Acid-catalyzed solvolysis at pH 3 monitored by UV; type: physicochemical; conditions: for solvolysis half-life t1/2 / solvolysis rate constant k: pH 3, 50% MeOH–buffer
Solvolysis at pH 7 = type: physicochemical
w794 and w836 duplex DNA = assay: DNA alkylation of the simple alkylation subunits; type: biochemical; conditions: for DNA alkylation selectivity (sites): both enantiomers
[4] = pH 3; cited from earlier work
w836 DNA = assay: DNA alkylation, thermally-induced strand cleavage of w836 DNA; type: biochemical; conditions: after 24 h

COC(=O)c1cc2c([nH]1)C(=O)C=C1N(C(=O)c3cc4cc(OC)c(OC)c(OC)c4[nH]3)CC3CC123 (single isomer, unassigned; (+)) [(+)-1, duocarmycin SA, reference compound]
IC50 (L1210 [1]): 10 pM

COC(=O)c1cc2c([nH]1)C(=O)C=C1N(C(=O)OC(C)(C)C)CC3CC123 (single isomer, unassigned; (+)) [(+)-8, N-Boc-DSA, reference compound]
IC50 (L1210 [1]): 6000 pM

COC(=O)c1cc2c([nH]1)C(=O)C=C1N(C(=O)c3cc4cc(OC)c(OC)c(OC)c4[nH]3)CC3CC123 (single isomer, unassigned; (-)) [(−)-1, duocarmycin SA, reference compound]
IC50 (L1210 [1]): 100 pM

COC(=O)c1cc2c([nH]1)C(=O)C=C1N(C(=O)OC(C)(C)C)CC3CC123 (single isomer, unassigned; (-)) [(−)-8, N-Boc-DSA, reference compound]
IC50 (L1210 [1]): 60000 pM

COC(=O)c1cc2c([nH]1)[C@@]13C[C@@H]1CN(C(=O)c1cc4cc(OC)c(OC)c(OC)c4[nH]1)C3=CC2=O [(+)-5, iso-duocarmycin SA]
IC50 (L1210 [1]): 50 pM

COC(=O)c1cc2c([nH]1)[C@@]13C[C@@H]1CN(C(=O)OC(C)(C)C)C3=CC2=O [(+)-7, N-Boc-iso-DSA]
IC50 (L1210 [1]): 33000 pM

COC(=O)c1cc2c([nH]1)[C@@]13C[C@@H]1CN(C(=O)c1cc4cc(OC)c(OC)c(OC)c4[nH]1)C3=CC2=O [(−)-5, iso-duocarmycin SA]
IC50 (L1210 [1]): 550 pM

COC(=O)c1cc2c([nH]1)[C@@]13C[C@@H]1CN(C(=O)OC(C)(C)C)C3=CC2=O [(−)-7, N-Boc-iso-DSA]
IC50 (L1210 [1]): 330000 pM

COC(=O)c1cc2c([nH]1)C(=O)C=C1N(C(=O)c3cc4cc(OC)c(OC)c(OC)c4[nH]3)CC3CC123 (stereo not shown) [Compound 1, Duocarmycin SA]
IC50 (L1210 [2]): 10 pM

COC(=O)c1cc2c([nH]1)[C@@]13C[C@@H]1CN(C(=O)c1cc4cc(OC)c(OC)c(OC)c4[nH]1)C3=CC2=O [Compound 5, iso-duocarmycin SA]
DNA alkylation site selectivity vs duocarmycin SA counterpart (w794 DNA; w794, 48 h): alkylated the same site as its duocarmycin SA counterpart | fold difference in potency, natural vs unnatural enantiomer (L1210 [1]; L1210): 10 fold | fold less potent than the duocarmycin SA / yatakemycin series counterpart (L1210 [1]; L1210): 5 fold | IC50 (L1210 [1]): 50 pM

COC(=O)c1cc2c([nH]1)[C@@]13C[C@@H]1CN(C(=O)OC(C)(C)C)C3=CC2=O [Compound 7, N-Boc-iso-DSA]
solvolysis half-life t1/2 [3]: 89 h | solvolysis rate constant k [3]: 2.2e-06 s⁻¹ | fold more reactive than N-Boc-DSA (8) ([3]; pH 3 solvolysis): 2 fold | fold difference in potency, natural vs unnatural enantiomer (L1210 [1]; L1210): 10 fold | fold less potent than the duocarmycin SA / yatakemycin series counterpart (L1210 [1]; L1210): 5 fold | solvolysis at pH 7 (Solvolysis at pH 7): no measurable solvolysis; also recorded: stable | times less efficient DNA alkylation than the full length agents (w794 and w836 duplex DNA): 10^3–10^4 times | DNA alkylation selectivity (sites) (w794 and w836 duplex DNA): 5′-AA and 5′-TA

COC(=O)c1cc2c([nH]1)C(=O)C=C1N(C(=O)OC(C)(C)C)CC3CC123 (stereo not shown) [Compound 8, N-Boc-DSA, reference compound]
solvolysis half-life t1/2 [4]: 177 h | solvolysis at pH 7 (Solvolysis at pH 7): stable | times less efficient DNA alkylation than the full length agents (w794 and w836 duplex DNA): 10^3–10^4 times | DNA alkylation selectivity (sites) (w794 and w836 duplex DNA): 5′-AA and 5′-TA

O-benzyl-iso-duocarmycin SA [(+)-34]
IC50 (L1210 [1]): 7000 pM

O-benzyl-iso-duocarmycin SA [(−)-34]
DNA alkylation efficiency relative to duocarmycin SA (1) (w794 DNA; w794, 22 h, 1 × 10^−5 M): nearly equivalent to that of 1 | fold more reactive than N-Boc-iso-DSA (7) ([3]; pH 3 solvolysis): 470 fold | fold less active than duocarmycin SA (L1210 [1]; L1210): 600 fold | fold less active than iso-duocarmycin SA (L1210 [1]; L1210): 120 fold | IC50 (L1210 [1]): 6000 pM

O-benzyl-iso-duocarmycin SA [Compound 34]
solvolysis half-life t1/2 [3]: 0.19 h | solvolysis rate constant k [3]: 0.001 s⁻¹ | fold more reactive than N-Boc-iso-DSA (7) ([3]; pH 3 solvolysis): 470 fold | solvolysis half-life t1/2 (Solvolysis at pH 7; pH 7, 50% MeOH–H2O): 0.20 h | solvolysis rate constant k (Solvolysis at pH 7; pH 7, 50% MeOH–H2O): 0.000977 s⁻¹

iso-yatakemycin [(+)-6]
fold less DNA alkylation than the yatakemycin enantiomers (w836 DNA): 2–5 fold | IC50 (L1210 [1]): 15 pM

iso-yatakemycin [(−)-6]
fold less DNA alkylation than the yatakemycin enantiomers (w836 DNA): 2–5 fold | fold less potent than the duocarmycin SA / yatakemycin series counterpart (L1210 [1]; L1210): ca. 5 fold | IC50 (L1210 [1]): 30 pM

yatakemycin [Compound 3, reference compound]
IC50 (L1210 [1]): 6 pM | IC50 (L1210 [2]): 3 to 6 pM
